Laboratory results from ChEMBL document CHEMBL3046820, “1,6-Bis[1-(2-chloro-5-thiazolylmethyl)-2-nitroiminoimidazolidin-3-yl]hexane and 1,3,5-tris[1-(6-chloronicotinyl)-2-nitroiminoimidazolidin-3-ylmethyl]benzeneSynthesis and insecticidal and neuroblocking activities in American cockroaches, Periplaneta americana” (2006).

Key:
Assay type in all cases: functional
[1] = system: Abdominal central nerve cord; assay: Neuroblocking activity in adult male Periplaneta americana (American cockroach) abdominal central nerve cords containing fifth and sixth ganglia assessed as neuroblocking concentration to supress frequncy below 10 counts/30 sec measured at 22 to 25 degC
Periplaneta americana [2] = assay: Insecticidal activity against adult male Periplaneta americana (American cockroach) dosed through injection into abdomen assessed as mortality measured 24 hr post dose pre-treated with 50 ug metabolic inhibitor PB and 50 ug NIA 1 hr before compound injection
Periplaneta americana [3] = assay: Insecticidal activity against adult male Periplaneta americana (American cockroach) dosed through injection into abdomen assessed as mortality measured 24 hr post dose

Structure (SMILES) | BC [1] [µM] | MLD (Periplaneta americana [2]) [nmol] | MLD (Periplaneta americana [3]) [nmol]
O=[N+]([O-])/N=C1\N(Cc2ccc(Cl)nc2)CCN1Cc1cccc(CN2CCN(Cc3ccc(Cl)nc3)/C2=N/[N+](=O)[O-])c1CN1CCN(Cc2ccc(Cl)nc2)/C1=N\[N+](=O)[O-] | 100 | 3.4 | 34
O=[N+]([O-])/N=C(/NCCCCCCN/C(=N\[N+](=O)[O-])NCc1cnc(Cl)s1)NCc1cnc(Cl)s1 | 14.8 | 85.1 | >134
O=[N+]([O-])/N=C1\NCCN1Cc1ccc(Cl)nc1 [IMIDACLOPRID] | 2.3 | 0.071 | 1.1
O=[N+]([O-])/N=C(/NCCCCCCN/C(=N\[N+](=O)[O-])NCc1ccc(Cl)nc1)NCc1ccc(Cl)nc1 | 26.3 | 25.7 | >129
O=[N+]([O-])/N=C1/N(CCCCCCN2CCN(Cc3ccc(Cl)nc3)/C2=N/[N+](=O)[O-])CCN1Cc1ccc(Cl)nc1 [Hexamethylene 1,6-bis-imadacloprid] | 3.7 | 0.29 | 2.2
O=[N+]([O-])/N=C1\N(Cc2ccc(Cl)nc2)CCN1Cc1cccc(CN2CCN(Cc3ccc(Cl)nc3)/C2=N/[N+](=O)[O-])c1 |  | 1 | 20
O=[N+]([O-])/N=C1/N(CCCCCCN2CCN(Cc3cnc(Cl)s3)/C2=N/[N+](=O)[O-])CCN1Cc1cnc(Cl)s1 |  | 1.1 | 8.9
